Reference: patent US12459940B2, “Oxazole compound as multi-targeted inhibitor of IRAK4 and BTK” (SHANGHAI FOSUN PHARMACEUTICAL INDUSTRIAL DEVELOPMENT CO., …, priority 2019, dated 2025)
Like-named read-outs stand apart in the source and are kept apart here. Each block holds one compound with its values, some of them ahead of it.

Key:
human IRAK4 = biological target: T1, human IRAK4 (Homo sapiens, UniProt Q9NWZ3); test: In vitro IRAK4 kinase activity, 33P isotope-labeled kinase activity assay (Reaction Biology Corp); format: biochemical
T1 construct: purchased Reaction Biology Corp
T1 sequence (Q9NWZ3 1-460): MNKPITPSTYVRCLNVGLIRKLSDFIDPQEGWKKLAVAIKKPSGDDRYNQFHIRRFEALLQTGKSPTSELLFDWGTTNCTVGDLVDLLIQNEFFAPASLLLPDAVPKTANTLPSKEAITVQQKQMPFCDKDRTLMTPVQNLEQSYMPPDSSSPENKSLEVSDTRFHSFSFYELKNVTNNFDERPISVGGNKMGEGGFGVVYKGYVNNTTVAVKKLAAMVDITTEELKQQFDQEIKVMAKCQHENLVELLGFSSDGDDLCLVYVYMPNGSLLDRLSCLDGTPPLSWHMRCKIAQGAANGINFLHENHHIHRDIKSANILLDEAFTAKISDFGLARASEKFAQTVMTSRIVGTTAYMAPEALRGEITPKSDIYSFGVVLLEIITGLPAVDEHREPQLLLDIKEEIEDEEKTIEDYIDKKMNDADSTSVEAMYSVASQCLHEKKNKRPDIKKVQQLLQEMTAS
Protocol: The IC50 values were determined using ^33P isotope-labeled kinase activity assay (Reaction Biology Corp) to evaluate the inhibitory ability of the tested compounds on human IRAK4.
(§1) Buffer conditions: 20 mM Hepes (pH 7.5), 10 mM MgCl2, 1 mM EGTA, 0.02% Brij35, 0.02 mg/mL BSA, 0.1 mM Na3VO4, 2 mM DTT, 1% DMSO.
Test procedure: At room temperature, the tested compound was dissolved in DMSO to prepare a 10 mM solution for later use. The substrate was dissolved in a newly prepared buffer solution, and the tested IRAK4 kinase was added thereto and mixed evenly. The DMSO solution dissolved with the tested compound was added to the above reaction mixture mixed evenly using acoustic technique (Echo 550). After incubation for 15 minutes, ^33P-ATP was added to initiate the reaction.

[1] = system: OCI-LY10 human B-cell lymphoma cells; test: OCI-LY10 cell proliferation inhibition (CellTiter-Glo); format: cell-based; settings: OCI-Ly10, 72 h, treated for 3 days
Protocol: OCI-LY10 human B-cell lymphoma cells were cultured in a 37° C., 5% CO2 incubator. The composition of medium was IMDM (GIBCO, Cat #12440053); the supplementary compositions were 20% FBS (Hyclone, Cat #SH30084.03); 1% PenStrep (Thermo, Cat #SV30010).
(§2) The tumor cell lines OCI-LY10 and TMD8 were used to detect the effect of the compound on inhibiting tumor cell proliferation in vitro. The tumor cell line was cultured in a 37° C., 5% CO2 incubator according to the culture conditions shown, and passaged regularly, then the cells in the logarithmic growth phase were taken, counted, and spread in a 96-well plate (the cells in each well were adjusted to an appropriate concentration, a total of […] per well was added). After incubating overnight in a 37° C., 5% CO2 incubator, drugs with different concentration gradients (10 μL of drug solution was added) were added and treated for 3 days, then 50 μL of CellTiter-Glo working solution was added to each well, and the cell plate was wrapped with aluminum foil to avoid light. The culture plate was shaken on an orbital shaker for 2 minutes to induce cell lysis, and placed at room temperature for 10 minutes to stabilize the luminescence signal, then the luminescence signal was detected on the 2104 EnVision plate reader.
(§3) The Inhibition rate (IR) of the tested compound was calculated using the following formula: IR (%)=(1−(RLU compound−RLU blank control)/(RLU solvent control−RLU blank control))*100%.
(§4) The inhibition rates of different concentrations of the compounds were calculated in Excel, and then the inhibition curves were made by GraphPad Prism software and the related parameters were calculated, including the minimum inhibition rate, the maximum inhibition rate and IC50.

human BTK = biological target: T2, human BTK (Homo sapiens, UniProt Q06187); test: In vitro BTK kinase activity, 33P isotope-labeled kinase activity assay (Reaction Biology Corp); format: biochemical; settings: 33P-ATP, 2 hours at room temperature
T2 construct: purchased Reaction Biology Corp
Protocol: The IC50 values were determined using ^33P isotope-labeled kinase activity assay (Reaction Biology Corp) to evaluate the inhibitory ability of the tested compounds on human BTK.
as §1
Test procedure: At room temperature, the tested compound was dissolved in DMSO to prepare a 10 mM solution for later use. The substrate was dissolved in a newly prepared buffer solution, and the tested BTK kinase was added thereto and mixed evenly. The compound dissolved in DMSO was added to the kinase reaction mixture through Echo 550 (Acoustic technology; Nanoliter range). After incubation for 20 minutes at room temperature, ^33P-ATP was added to initiate the reaction. The reaction was carried out at room temperature for 2 hours, and the radioactivity of the reaction liquid point was detected by filtration-binding method with P81 ion exchange filter paper. The kinase activity data were expressed by comparing the kinase activity of the group containing the tested compound with the kinase activity of the blank group (only containing DMSO), and the IC50 value was obtained by curve fitting by Prism4 software (GraphPad), the experimental results are shown in Table 10.

OCI-LY3 cell line = test: OCI-LY3 cell proliferation inhibition (CTG); format: cell-based; settings: Homo sapiens, incubated for 72 hours
Protocol: The tumor cell line used in this experiment was provided by Nanjing Cobioer Biotechnology Co., Ltd. See Table 13 below for specific information.
The tumor cell lines OCI-LY3 were used to detect the effect of the compound on inhibiting tumor cell proliferation in vitro. The OCI-LY3 cell line was cultured in the corresponding medium at 37° C. and 5% CO2, and the logarithmic growth phase cells were used in the experimental plating. The cells were collected and centrifuged at 800 rpm for 5 minutes, and the culture medium was re-suspended and spread in a 96-well plate. After incubating overnight in a 37° C., 5% CO2 incubator, the cells with different concentration gradients (10 μL of prepared diluent of the tested compound) were incubated for 72 hours, and the cell culture plates were incubated with CTG reagent at room temperature and away from light for 30 minutes, and then recovered to room temperature. 100 μL/hole of CTG solution was added into the biosafety cabinet away from light, and the plate shaker was shaken and mixed evenly away from light for 2 minutes, and incubated at room temperature away from light for 10 minutes. The luminescence values were read and recorded using the Perkin Elmer Envision 2104 MuLtilabel Reader.
The results of luminescence values measured at each drug concentration were normalized with the luminescence values of the blank control group, and the ratio of this value to the DMSO group was taken as the cell inhibition rate (%). Using GraphPad software, the logarithm of drug concentration (log drug concentration) versus inhibition rate was plotted, and the software automatically fitted and calculated IC50 value and 95% confidence limit value by log (inhibitor) vs. normalized response algorithm of nonlinear regression.

[2] = system: TMD8 human B-cell lymphoma cells; test: TMD-8 cell proliferation inhibition (CellTiter-Glo); format: cell-based; settings: TMD8, 72 h, treated for 3 days
Protocol: TMD8 human B-cell lymphoma cells were cultured in a 37° C., 5% CO2 incubator. The composition of medium was RPMI1640 (GIBCO, Cat #22400-089); the supplementary compositions were 10% FBS (Hyclone, Cat #SH30084.03); 1% PenStrep (Thermo, Cat #SV30010).
as §2, §3, §4

[3] = system: TNF-α production in THP-1 cells; test: THP-1 cytological TNFa ELISA assay (LPS-stimulated); format: cell-based; settings: Homo sapiens, TNF-α in culture supernatant, 150 ng/mL LPS, 18 hours
Protocol: THP-1 human acute […] leukemia cells were purchased from ATCC (Cat #TIB-202) and cultured at 37° C. in 5% CO2 incubator. The composition of medium was RPMI1640 (Gibco, Cat #22400-105), and the supplementary compositions were 10% FBS (Gibco, Cat #10091148); 1% PenStrep (Gibco, Cat #15140); 0.05 mM 2-Mercaptoethanol (Sigma, Cat #M6250).
TNF-α Elisa kit was used to detect the content of TNF-α in cell culture supernatant samples. TNF-α was produced by stimulating THP-1 cells with 150 ng/mL LPS (Sigma, Cat #L6529).
THP-1 cells cultured normally at logarithmic growth stage were seeded in a 96-well plate (Corning #3599) at a certain concentration (1*10^5/100 μL) and then put into a cell incubator for incubation. After two hours, 16.7 μL of different concentrations of the compound to be tested (8*final concentration) were added and incubated in an incubator. After one hour, 16.7 μL of 1200 ng/mL LPS was added and incubated in an incubator. After 18 hours, the culture supernatant samples were collected by centrifugation, and the content of TNF-α could be detected by TNF-α Elisa kit. Finally, OD signals (OD450-OD570) were read on envision board reader.
The OD450-OD570 signal value was converted into a percentage inhibition rate. Inhibition rate %=(ZPE−sample)/(ZPE−HPE)*100.
“HPE” refers to the OD450-OD570 signal value of the control well without LPS stimulated cells, and “ZPE” refers to the OD450-OD570 signal value of the control well with LPS stimulated cells. The IC50 value of the compound was calculated by XLFit in the excel add-in. Y=Bottom+(Top−Bottom)/(1+(IC50/X)^HillSlope). Equation: […]

[4] = system: human B-cell lymphoma OCI-LY10 cell subcutaneous xenograft tumor; test: Human B-cell lymphoma OCI-LY10 cell subcutaneous xenograft tumor mouse model; format: in vivo; settings: 10 mpk, 18 days after the start of administration, p<0.001
Protocol: The objective of the experiment was to study the efficacy of WX001 as the test drug on human B-cell lymphoma OCI-LY10 cell subcutaneous xenograft tumor in CB17 SCID mouse model.
OCI-LY10 human B-cell lymphoma cells were cultured in a 37° C., 5% CO2 incubator.
OCI-LY10 tumor cells were cultured and passaged, and 0.2 mL (1×10^7 cells) OCI-LY10 cells were subcutaneously inoculated on the right back of each […] (with Matrigel, volume ratio 1:1), and the group administration was started when the average tumor volume reached 167 mm^3. The health status and death of animals were monitored every day, and routine examinations included observing the effects of tumor growth and drug treatment on daily behaviors of animals, such as behavioral activities, food intake and water intake, weight change (weight was measured twice a week), tumor size (tumor volume was measured twice a week), appearance signs or other abnormal conditions.
The experimental index was to investigate whether the tumor growth was inhibited, delayed or cured. Including the measurement of tumor volume (TV), and the calculation of the compound's anti-tumor efficacy using TGI (%) or the relative tumor proliferation rate T/C (%).
TV=0.5a×b^2, a and b represented the long diameter and short diameter of the tumor, respectively.
T/C %=TRTV/CRTV×100% (TRTV: RTV in treatment group; CRTV: RTV in negative control group). Relative tumor volume (RTV) was calculated according to the results of tumor measurement, and the calculation formula was RTV=Vt/V0, wherein V0 was the average tumor volume measured at the time of group administration (i.e., d0), Vt was the average tumor volume at a certain measurement, and TRTV and CRTV were the data taken at the same day.

T2 sequence (Q06187 whole entry): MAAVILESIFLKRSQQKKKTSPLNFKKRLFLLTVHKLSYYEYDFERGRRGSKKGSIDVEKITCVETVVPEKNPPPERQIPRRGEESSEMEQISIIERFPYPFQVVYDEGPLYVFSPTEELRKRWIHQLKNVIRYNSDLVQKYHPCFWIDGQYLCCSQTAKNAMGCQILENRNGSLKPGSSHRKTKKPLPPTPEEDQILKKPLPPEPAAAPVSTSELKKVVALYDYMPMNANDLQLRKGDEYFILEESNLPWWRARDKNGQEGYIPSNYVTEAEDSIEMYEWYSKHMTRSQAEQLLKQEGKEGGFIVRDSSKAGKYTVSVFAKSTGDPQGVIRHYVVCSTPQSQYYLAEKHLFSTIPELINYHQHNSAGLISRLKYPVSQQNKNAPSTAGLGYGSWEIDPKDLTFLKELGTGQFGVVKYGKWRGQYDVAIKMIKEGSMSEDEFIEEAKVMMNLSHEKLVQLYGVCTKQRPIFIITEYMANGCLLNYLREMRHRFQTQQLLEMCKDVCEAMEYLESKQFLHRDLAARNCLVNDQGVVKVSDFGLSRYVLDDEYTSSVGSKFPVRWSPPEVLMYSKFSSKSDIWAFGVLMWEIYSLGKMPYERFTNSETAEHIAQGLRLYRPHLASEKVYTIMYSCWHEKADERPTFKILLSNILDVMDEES

- IC50 (human IRAK4; 33P-ATP, 120 minutes at room temperature, read-out: IRAK4/IC50): 0.0034 µM
- IC50 [1]: 0.077 µM
- IC50 (human BTK): 0.0286 µM
- IC50 (OCI-LY3 cell line): 0.27 µM
Structure (SMILES): Cc1cc(-c2nc(C(=O)Nc3cn4cc(CCC(C)(C)O)nc4cc3N3CCC(C(C)(C)O)CC3)co2)ccn1 [WX045]

Structure (SMILES): Cc1cc(-c2nc(C(=O)Nc3cn4cc(CCC(C)(C)O)nc4cc3-c3ccccc3)co2)ccn1 [WX021]
- IC50 (human IRAK4): 0.0005 µM
- IC50 [1]: 0.171 µM
- IC50 [2]: 0.215 µM
- IC50 (human BTK): 0.0139 µM
- IC50 [3]: 0.015 µM

Structure (SMILES): C=CC(=O)N1CCC[C@@H](n2nc(-c3ccc(Oc4ccccc4)cc3)c3c(N)ncnc32)C1 [Ibrutinib, reference compound]
- T/C value [4]: 39%
- TGI value [4]: 85%

Structure (SMILES): Cc1cc(-c2nc(C(=O)Nc3cn4cc(CCC(=O)O)nc4cc3N3CCC(C)(C)CC3)co2)ccn1 [WX016]
- IC50 (human IRAK4): 0.0009 µM
- IC50 [1]: 0.466 µM
- IC50 [2]: 0.221 µM
- IC50 (human BTK): 0.0089 µM
- IC50 [3]: 0.17 µM

Structure (SMILES): Cc1cc(-c2nc(C(=O)Nc3cn4cc(C(C)(C)O)nc4cc3N3CCCCC3)co2)ccn1 [WX040]
- IC50 (human IRAK4): 0.0012 µM
- IC50 [1]: 0.087 µM
- IC50 (human BTK): 0.0033 µM
- IC50 [3]: 0.038 µM
- IC50 (OCI-LY3 cell line): 0.283 µM
